Molecular target: Interleukin-17 receptor A/ (Homo sapiens, UniProt Q16552)
Test: Human IL-17A x IL-17RA TR-FRET assay
Procedure: The final total assay volume is 10 µL. […] The neutral control (NC) contains all the assay components, but DMSO instead of test compound. […] The fluorescence values for emission at 615 nm and 665 nm are loaded to the evaluation software Helios.

Interleukin-17 receptor A/, sequence (Q16552 whole entry): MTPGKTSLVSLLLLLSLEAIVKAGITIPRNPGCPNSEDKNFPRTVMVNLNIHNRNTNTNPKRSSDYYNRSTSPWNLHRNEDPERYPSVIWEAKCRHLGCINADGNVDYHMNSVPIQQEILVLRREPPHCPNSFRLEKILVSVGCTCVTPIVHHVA
Interleukin-17 receptor A/, sequence (Q96F46 whole entry, further chain): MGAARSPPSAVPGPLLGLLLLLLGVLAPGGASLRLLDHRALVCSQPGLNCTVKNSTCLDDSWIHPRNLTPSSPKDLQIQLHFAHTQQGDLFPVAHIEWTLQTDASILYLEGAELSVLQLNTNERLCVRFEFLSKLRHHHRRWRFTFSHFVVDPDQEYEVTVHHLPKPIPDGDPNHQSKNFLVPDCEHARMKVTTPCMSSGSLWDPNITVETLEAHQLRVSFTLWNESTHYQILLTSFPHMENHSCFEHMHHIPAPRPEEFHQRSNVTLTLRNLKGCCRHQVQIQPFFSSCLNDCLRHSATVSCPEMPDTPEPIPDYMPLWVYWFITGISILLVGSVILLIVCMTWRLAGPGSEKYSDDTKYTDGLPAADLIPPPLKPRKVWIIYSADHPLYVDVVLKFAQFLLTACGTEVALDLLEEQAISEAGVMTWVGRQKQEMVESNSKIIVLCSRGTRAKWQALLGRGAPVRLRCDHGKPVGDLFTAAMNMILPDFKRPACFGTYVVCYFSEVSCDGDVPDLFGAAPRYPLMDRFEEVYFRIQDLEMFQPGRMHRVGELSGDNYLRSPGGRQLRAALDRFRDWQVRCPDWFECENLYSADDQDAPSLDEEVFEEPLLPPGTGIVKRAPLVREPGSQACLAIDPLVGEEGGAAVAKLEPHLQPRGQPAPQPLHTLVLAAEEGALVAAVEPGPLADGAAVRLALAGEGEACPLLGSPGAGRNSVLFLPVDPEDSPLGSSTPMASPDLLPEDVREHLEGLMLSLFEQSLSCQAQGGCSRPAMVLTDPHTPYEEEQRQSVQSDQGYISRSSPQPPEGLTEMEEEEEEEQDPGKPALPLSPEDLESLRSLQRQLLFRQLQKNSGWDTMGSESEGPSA

SMILES | IC50
Cc1cc[n+]([O-])c(C)c1-c1ccc(NC(=O)[C@@H](NC(=O)c2conc2CN)C2CCCCC2)cc1 [WO2022091056, Example 79] | 918 nM
Cc1c(-c2ccc(NC(=O)[C@@H](NC(=O)c3ccnn3C)C3CCCCC3)cc2F)ccc[n+]1[O-] [WO2022091056, Example 83] | 1980 nM
Cc1c[n+]([O-])cc(C)c1-c1ccc(NC(=O)[C@@H](NC(=O)c2ccnn2C)C2CCCCC2)cc1 [WO2022091056, Example 97] | 1730 nM
Cc1c(-c2ccc(NC(=O)[C@@H](NC(=O)c3ccnn3C)[C@H]3CCCC(F)(F)C3)cc2F)c(Cl)cc[n+]1[O-] [WO2022091056, Example 110] | 23 nM
Cc1nccc(Cl)c1-c1ccc(NC(=O)[C@@H](NC(=O)c2ccnn2C)C2CCCCC2)cc1F [WO2022091056, Example 137] | 3790 nM

Source: BindingDB's records for patent WO2022091056 (NOVARTIS AG, 2022)
